Patent US20170333522A1, “EXPRESSION AND FUNCTION OF GPR64/ADGRG2 IN ENDOCRINE SYSTEMS AND METHODS TO TARGET IT THERAPEUTICALLY” (priority 2016, published 2017)

Experiments:
[1] = tested on: tumor cells from tertiary hyperparathyroidism; assay: PTH secretion from isolated tumor cells of tertiary hyperparathyroidism glands; format: cell-based, human
Experimental: FIG. 14A. Tertiary hyperparathyroidism following kidney transplantation. […] Isolated tumor cells from tertiary hyperparathyroidism gland A were stimulated with calcium (CaSR agonist) and P-15 peptide (GPR64 agonist) in vitro and PTH secretion was measured.
FIG. 14B. Tertiary hyperparathyroidism following kidney transplantation. […] Isolated tumor cells from tertiary hyperparathyroidism gland C were stimulated with calcium (CaSR agonist) and P-15 peptide (GPR64 agonist) in vitro and PTH secretion was measured. Cells express very high levels of GPR64 and are unresponsive to calcium-mediated suppression of PTH secretion.

[2] = tested on: HEK-CaSR cells; assay: cAMP accumulation assay in HEK-CaSR cells; format: cell-based, human; settings: activation of CaSR by 3 mM Ca^2+, forskolin-stimulated cells
[3] = tested on: human parathyroid adenoma cells; assay: PTH secretion from freshly dispersed human parathyroid adenoma cells (intact PTH ELISA); format: cell-based; settings: 30 min
Experimental: Dispersed primary human parathyroid cells were rested for 1 hr at 37° C. in keratinocyte-SFM media (Thermo Fisher Scientific#37010-022) supplemented with the manufacturer's provided media supplements, antibiotics and 1.25 mM Ca^2+. Cells were then centrifuged and transferred to KSFM media with various concentrations of Ca^2+, P-15 peptide, forskolin and volumetric equivalent of DMSO for 30 min at 37° C. Supernatants were collected by centrifugation at 10,000 rpm, 5 min at 4° C. and were stored in −80 for determination of intact PTH.
Human intact PTH (1-84) in cell supernatants was measured in a colorimetric ELISA assay (Immutopics International #60-3000).

[4] = tested on: P-15-induced CRE induction; assay: P-15-induced CRE induction in GPR64-transfected HEK cells after preincubation with kinase inhibitors; format: cell-based, human; settings: 1 hr preincubation (H-89 20 μM, U0126 10 μM) before 100 μM P-15 for 5 hrs
Experimental: FIG. 7. HEK cells were transfected with pCRE-Luc and GPR64 and were preincubated with DMSO (vehicle), H-89 (PKA inhibitor, 20 μM) or U0126 (MEK inhibitor, 10 μM) for 1 hr before stimulation with either DMSO or 100 μM P-15 peptide for 5 hrs. Luciferase assay data are normalized to vehicle-preincubated, DMSO stimulated cells. Data are mean±SD from 3 independent experiments conducted in triplicates. *: P<0.05, **: P<0.01.
HEK cells were seeded in white opaque 96-well plates (30,000 cell/well) and were transfected with pCRE-Luc (100 ng/well) along with different doses of empty or GPR64-expressing plasmids. Cell were either left untreated or stimulated with different concentrations of P-15 peptide for 5 hrs at 37° C. Luminescence was measured in a FLEXStationIII plate reader (Molecular Devices).

[5] = target: T1, GPR64ΔNTF (Homo sapiens, UniProt Q8IZP9); assay: cAMP accumulation assay in HEK-CaSR cells transfected with GPR64ΔNTF; format: cell-based; settings: concomitant 3 mM Ca^2+ and 100 μM P-15
T1 construct: The human GPR64 variant 1 (full length with 1017 amino acids); expressed in transfected cells; host or cells: AD-293 (HEK) cells, transient transfection with pcDNA3.1-GPR64ΔNTF

[6] = target: T1, GPR64ΔNTF; assay: CRE reporter gene assay (pCRE-Luc) in HEK cells transfected with GPR64ΔNTF; format: cell-based; settings: increasing concentrations of P-15, 5 hrs
Experimental: (§1) FIG. 2. (A) HEK cells were transfected with pCRE-Luc in combination with 200 ng of pcDNA3.1, GPR64 or GPR64ΔNTF plasmids and were stimulated with increasing concentrations of 15 amino acid-long human GPR64 peptide (P-15) for 5 hrs. Luciferase activity (CRE induction) was measured and data were normalized to the values of cells transfected with pcDNA3.1. Data are mean±SD from 3-4 independent experiments conducted in triplicates. (B) Forty eight hrs post-transfection with pcDNA3.1, GPR64 or GPR64ΔNTF plasmids, HEK cells were stimulated with DMSO (vehicle) or 100 μM P-15 peptide for 30 min and cAMP accumulation was measured in an ELISA assay at 405 nm. […] (C) Freshly isolated human adenoma parathyroid cells were stimulated with increasing concentrations of Ca^2+ and P-15 or DMSO (vehicle) for 30 min and the concentration of secreted intact PTH was measured by ELISA. […] (D) Freshly isolated human adenoma parathyroid cells were stimulated with increasing concentrations of Ca^2+ and forskolin (FSK, 3 and 5 μM) or DMSO (vehicle) for 30 min and the concentration of secreted intact PTH was measured by ELISA. […]
(§2) HEK cells were seeded in white opaque 96-well plates (30,000 cell/well) and were transfected with pCRE-Luc (100 ng/well) along with different doses of empty or GPR64-expressing plasmids. […] Luminescence was measured in a FLEXStationIII plate reader (Molecular Devices).

[7] = target: T2, GPR64 (Homo sapiens, UniProt Q8IZP9); assay: cAMP accumulation assay in HEK-CaSR cells transfected with GPR64; format: cell-based; design: The human GPR64 variant 1 (full length with 1017 amino acids); expressed in transfected cells; host or cells: HEK-CaSR cells (AD-293 clone stably expressing FLAG-tagged human CaSR), transient transfection with pcDNA3.1-GPR64; settings: 100 μM P-15, 30 min, 1.25 or 3 mM Ca^2+
[8] = target: T2, GPR64; assay: CRE reporter gene assay (pCRE-Luc) in HEK cells transfected with GPR64; format: cell-based; design: The human GPR64 variant 1 (full length with 1017 amino acids); expressed in transfected cells; host or cells: AD-293 (HEK) cells, transient transfection with pcDNA3.1-GPR64; settings: increasing concentrations of P-15, 5 hrs
Experimental: as §1, §2

[9] = target: T2, GPR64; assay: cAMP accumulation assay (ELISA) in HEK cells transfected with GPR64; format: cell-based; design: The human GPR64 variant 1 (full length with 1017 amino acids); expressed in transfected cells; host or cells: AD-293 (HEK) cells, transient transfection with pcDNA3.1-GPR64; settings: 100 μM P-15, 30 min, 48 hrs post-transfection
Experimental: FIG. 2. (A) HEK cells were transfected with pCRE-Luc in combination with 200 ng of pcDNA3.1, GPR64 or GPR64ΔNTF plasmids and were stimulated with increasing concentrations of 15 amino acid-long human GPR64 peptide (P-15) for 5 hrs. Luciferase activity (CRE induction) was measured and data were normalized to the values of cells transfected with pcDNA3.1. Data are mean±SD from 3-4 independent experiments conducted in triplicates. (B) Forty eight hrs post-transfection with pcDNA3.1, GPR64 or GPR64ΔNTF plasmids, HEK cells were stimulated with DMSO (vehicle) or 100 μM P-15 peptide for 30 min and cAMP accumulation was measured in an ELISA assay at 405 nm. Data were corrected to the protein concentration in samples. Data are mean±SD from 3 independent experiments conducted in triplicates. *: P<0.05, ****: P<0.0001. (C) Freshly isolated human adenoma parathyroid cells were stimulated with increasing concentrations of Ca^2+ and P-15 or DMSO (vehicle) for 30 min and the concentration of secreted intact PTH was measured by ELISA. Data were normalized to the PTH secretion in vehicle-treated cells cultured in 0.5 mM Ca^2+. […] (D) Freshly isolated human adenoma parathyroid cells were stimulated with increasing concentrations of Ca^2+ and forskolin (FSK, 3 and 5 μM) or DMSO (vehicle) for 30 min and the concentration of secreted intact PTH was measured by ELISA. […]

T2 sequence (Q8IZP9 38-1017): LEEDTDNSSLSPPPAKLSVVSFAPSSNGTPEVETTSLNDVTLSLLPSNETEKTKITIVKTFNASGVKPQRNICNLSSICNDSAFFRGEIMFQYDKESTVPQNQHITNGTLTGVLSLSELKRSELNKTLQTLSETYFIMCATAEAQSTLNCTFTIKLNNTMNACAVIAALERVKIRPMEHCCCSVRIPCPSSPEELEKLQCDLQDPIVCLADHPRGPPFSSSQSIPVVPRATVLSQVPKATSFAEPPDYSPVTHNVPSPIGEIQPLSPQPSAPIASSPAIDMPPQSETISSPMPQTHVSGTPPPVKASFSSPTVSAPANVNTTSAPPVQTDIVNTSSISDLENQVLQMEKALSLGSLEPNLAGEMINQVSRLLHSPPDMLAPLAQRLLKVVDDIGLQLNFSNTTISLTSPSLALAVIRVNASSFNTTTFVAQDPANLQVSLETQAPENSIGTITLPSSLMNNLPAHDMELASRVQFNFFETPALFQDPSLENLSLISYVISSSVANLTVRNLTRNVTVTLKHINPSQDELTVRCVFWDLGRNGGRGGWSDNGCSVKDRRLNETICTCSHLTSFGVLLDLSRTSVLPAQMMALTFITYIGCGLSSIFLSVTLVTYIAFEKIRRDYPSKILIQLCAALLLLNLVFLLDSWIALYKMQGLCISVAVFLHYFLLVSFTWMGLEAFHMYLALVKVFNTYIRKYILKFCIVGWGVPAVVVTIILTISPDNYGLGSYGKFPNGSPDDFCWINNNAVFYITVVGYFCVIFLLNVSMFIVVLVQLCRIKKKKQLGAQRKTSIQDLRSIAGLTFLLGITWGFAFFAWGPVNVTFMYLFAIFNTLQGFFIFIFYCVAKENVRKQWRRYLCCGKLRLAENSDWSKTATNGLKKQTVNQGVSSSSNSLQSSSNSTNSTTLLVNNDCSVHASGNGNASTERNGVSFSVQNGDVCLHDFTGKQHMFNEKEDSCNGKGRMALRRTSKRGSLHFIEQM
T1 sequence (Q8IZP9 607-1017 limits assumed, stated change not applied): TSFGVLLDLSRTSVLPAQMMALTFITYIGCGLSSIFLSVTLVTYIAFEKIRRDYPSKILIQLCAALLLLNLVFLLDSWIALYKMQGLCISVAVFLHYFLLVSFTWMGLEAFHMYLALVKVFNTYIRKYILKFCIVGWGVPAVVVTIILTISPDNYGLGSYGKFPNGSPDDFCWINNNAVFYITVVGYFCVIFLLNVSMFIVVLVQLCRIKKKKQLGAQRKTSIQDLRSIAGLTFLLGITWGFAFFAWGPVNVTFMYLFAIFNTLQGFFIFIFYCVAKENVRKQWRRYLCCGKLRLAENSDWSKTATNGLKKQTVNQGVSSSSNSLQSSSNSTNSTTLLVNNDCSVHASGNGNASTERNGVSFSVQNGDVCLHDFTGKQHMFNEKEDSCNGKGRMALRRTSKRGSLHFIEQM

[Ca+2].[Cl-].[Cl-] [Calcium, Calcium chloride, reference compound]
calcium-mediated suppression of PTH secretion ([1]; tertiary hyperparathyroidism gland C, cells express very high levels of GPR64): unresponsive
cAMP level [2]: suppressed cAMP levels significantly
PTH secretion ([3]; increasing concentrations of Ca^2+): suppressed PTH secretion in a dose-dependent manner

O=S(=O)(NCCNC/C=C/c1ccc(Br)cc1)c1cccc2cnccc12 [H-89]
effect on P-15-induced CRE induction [4]: blunted the P-15-induced CRE induction

N#CC(=C(/N)Sc1ccccc1N)/C(C#N)=C(\N)Sc1ccccc1N [U0126]
effect on P-15-induced CRE induction [4]: did not inhibit CRE induction

TSFGVLLDLSRTSVL [P-15, GPR64 agonist]
intracellular cAMP [5]: restored the intracellular cAMP to the level of cells activated only with P-15 in normocalcemic conditions
PTH secretion ([1]; tertiary hyperparathyroidism gland A, calcium plus P-15 in vitro): higher PTH secretion
CRE induction (luciferase activity) [6]: concentration-dependent CRE induction
cAMP production [7]: increased cAMP production irrespective of CaSR activation with 3 mM Ca^2+
CRE induction (luciferase activity) ([8]; GPR64-transfected HEK cells): concentration-dependent CRE induction
CRE induction (luciferase activity) ([8]; control cells (pcDNA3.1-transfected HEK)): absent
cAMP production [9]: specifically activates GPR64 to produce cAMP
PTH secretion ([3]; P-15 with various concentrations of Ca^2+): elevated the PTH secretion
